Laboratory results published in patent publication US20260234137A1, “BICYCLIC ENHANCERS OF THE PARTICULATE GUANYLYL CYCLASE RECEPTOR A” (University of Florida Research Foundation, Incorporated, priority 2022, published 2026).
Entries after “also recorded” stand apart in the source; their conditions may differ. Like-named read-outs stand apart in the source and are kept apart here. Blank lines part the entries; values can stand above or below the compound they belong to.

Assays:
hERG channel = hERG channel (Homo sapiens, UniProt Q12809); experiment: hERG binding / selectivity over hERG
Sequence of hERG channel (Q12809 whole entry): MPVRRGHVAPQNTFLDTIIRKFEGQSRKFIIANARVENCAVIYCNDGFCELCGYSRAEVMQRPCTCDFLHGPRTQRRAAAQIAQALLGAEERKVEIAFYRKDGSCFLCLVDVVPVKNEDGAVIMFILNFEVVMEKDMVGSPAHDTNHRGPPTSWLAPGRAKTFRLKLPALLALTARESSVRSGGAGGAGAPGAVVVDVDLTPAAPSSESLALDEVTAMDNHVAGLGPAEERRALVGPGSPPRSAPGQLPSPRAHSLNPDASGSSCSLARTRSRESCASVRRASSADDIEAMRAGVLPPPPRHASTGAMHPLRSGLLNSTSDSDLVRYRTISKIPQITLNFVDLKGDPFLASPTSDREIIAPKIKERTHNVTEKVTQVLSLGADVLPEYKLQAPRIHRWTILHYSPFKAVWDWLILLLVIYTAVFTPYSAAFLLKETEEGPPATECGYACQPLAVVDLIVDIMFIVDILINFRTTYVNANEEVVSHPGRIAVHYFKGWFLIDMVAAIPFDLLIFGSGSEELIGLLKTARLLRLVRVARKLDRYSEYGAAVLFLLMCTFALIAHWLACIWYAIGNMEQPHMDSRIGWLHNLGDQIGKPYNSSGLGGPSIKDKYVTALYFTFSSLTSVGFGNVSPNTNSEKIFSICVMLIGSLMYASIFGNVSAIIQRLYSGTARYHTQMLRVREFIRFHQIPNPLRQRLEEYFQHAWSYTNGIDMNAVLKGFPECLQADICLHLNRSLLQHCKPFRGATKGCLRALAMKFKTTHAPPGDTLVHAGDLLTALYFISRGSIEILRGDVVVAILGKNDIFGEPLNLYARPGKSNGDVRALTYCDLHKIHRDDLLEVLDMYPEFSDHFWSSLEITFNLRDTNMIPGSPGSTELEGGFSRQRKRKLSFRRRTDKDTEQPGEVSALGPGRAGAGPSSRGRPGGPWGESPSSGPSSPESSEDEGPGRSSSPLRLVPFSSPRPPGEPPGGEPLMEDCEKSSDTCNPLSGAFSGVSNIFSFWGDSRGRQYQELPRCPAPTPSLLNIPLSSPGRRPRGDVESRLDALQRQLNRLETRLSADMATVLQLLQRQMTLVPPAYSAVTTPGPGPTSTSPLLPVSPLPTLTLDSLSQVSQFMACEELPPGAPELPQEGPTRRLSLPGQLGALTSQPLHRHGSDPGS

human GC-A = target: T1, human GC-A (Homo sapiens, UniProt P16066); experiment: cGMP potentiation (HTRF) in human GC-A overexpressing HEK293 cells with EC20 ANP; assay type: cell-based; settings: for IC50: Table 3, additional compounds, modulation of pGC-A; for Emax: HEK293
T1 construct: host or cells: HEK293
T1 sequence (P16066 33-1061): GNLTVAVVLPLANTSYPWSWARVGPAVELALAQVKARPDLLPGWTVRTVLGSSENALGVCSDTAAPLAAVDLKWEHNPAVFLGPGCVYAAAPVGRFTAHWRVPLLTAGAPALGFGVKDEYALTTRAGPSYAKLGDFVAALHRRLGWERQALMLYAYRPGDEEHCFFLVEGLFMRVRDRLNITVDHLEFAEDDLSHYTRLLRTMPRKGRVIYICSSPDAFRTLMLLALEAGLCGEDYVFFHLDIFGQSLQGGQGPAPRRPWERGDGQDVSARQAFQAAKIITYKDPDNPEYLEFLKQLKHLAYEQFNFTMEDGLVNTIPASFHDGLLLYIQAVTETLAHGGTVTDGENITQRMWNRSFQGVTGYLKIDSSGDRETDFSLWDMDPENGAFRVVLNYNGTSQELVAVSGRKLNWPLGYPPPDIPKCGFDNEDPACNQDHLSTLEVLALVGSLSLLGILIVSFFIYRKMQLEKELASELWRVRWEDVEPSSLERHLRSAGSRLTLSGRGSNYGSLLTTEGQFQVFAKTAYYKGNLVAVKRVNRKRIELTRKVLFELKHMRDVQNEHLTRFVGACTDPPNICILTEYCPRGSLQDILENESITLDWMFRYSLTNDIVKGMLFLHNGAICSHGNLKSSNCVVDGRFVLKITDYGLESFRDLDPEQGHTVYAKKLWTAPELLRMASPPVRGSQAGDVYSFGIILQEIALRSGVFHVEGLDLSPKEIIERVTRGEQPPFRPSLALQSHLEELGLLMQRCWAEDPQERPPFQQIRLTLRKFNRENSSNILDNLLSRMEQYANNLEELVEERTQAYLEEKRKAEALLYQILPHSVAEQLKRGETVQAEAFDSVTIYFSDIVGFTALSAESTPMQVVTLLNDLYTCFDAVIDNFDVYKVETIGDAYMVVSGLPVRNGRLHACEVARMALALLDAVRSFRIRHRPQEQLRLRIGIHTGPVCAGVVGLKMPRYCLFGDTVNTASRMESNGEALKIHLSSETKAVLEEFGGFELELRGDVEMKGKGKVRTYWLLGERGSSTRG
T1 sequence (P01160 124-151 partner limits assumed): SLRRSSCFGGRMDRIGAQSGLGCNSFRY
Method: Test compounds were evaluated for potentiation of cGMP in human GC-A overexpressing HEK293 cells (Cardiorenal Research Laboratory, Mayo Clinic). Test compounds at 10 mM DMSO stock concentration were dispensed into 384 well small volume white plates using Tecan D300e digital dispenser starting at 5 μM concentration and diluted 2-fold for 10-point concentration response. Wells were backfilled with DMSO such that the final concentration of DMSO in all wells was maintained at 0.3% DMSO. Atrial natriuretic peptide (ANP, Phoenix Pharmaceuticals) peptide ANP was prepared as working stock aliquots at 5 μM in phosphate-buffered solution (PBS) with 0.1% bovine serum albumin (BSA) and diluted to […] in buffer+Tween20 at 0.3% and added to plates to a final concentration of 20 pM (EC20). GC-A cells in suspension […] in OptiMem media (11058-021) supplemented with 2% fetal bovine serum were plated at 1×10^6 cells/mL and assay plates were spun at 1000 rpm for 30 sec and incubated at RT for 30 min. GC-A-mediated activation of cGMP production was measured using cGMP CisBio detection homogenous time-resolved florescence (HTRF) competition assay using labeled-cGMP in human GC-A-overexpressing HEK293 cells. 5 μL of d-2 acceptor was dispensed into each well followed by addition of 5 μL of Anti-cGMP Eu-Cryptate antibody donor and plates were spun at 1000 rpm for 30 sec and incubated in the dark at RT for 1 hr. HTRF florescence was read on the ClarioStar microplate reader (BMG). A 100% response was determined from wells in the absence of compound and presence of saturating concentration of ANP (10 nM), and 0% response was determined from wells containing an EC20 concentration of ANP determined for each new lot of ANP. EC20 values of ANP were maintained in the range of 15-30 pM across all assay plates tested.
Test compounds were tested in the absence of ANP to determine agonist activity.

[1] = cited from earlier work
[2] = Table 1, 100% = saturating ANP (10 nM), 0% = EC20 ANP, read-out: Emax (%)
[3] = Table 1, Formula (I-a), cGMP potentiation, ANP at EC20, read-out: EC50

Structure (SMILES): O=C(Nc1nc2c(F)cc(F)cc2s1)C1CNCCN1C(=O)OCc1ccccc1 (centres unmarked) [JUF-S11-002A]
IC50 (human GC-A): > 5 µM

Structure (SMILES): CCOc1cc(F)c2nc(NC(=O)C3CCCN(CCN(C)C)C3)sc2c1 (centres unmarked) [JUF-S3-010]
IC50 (human GC-A): > 5 µM

Structure (SMILES): CN(C)CCN1CC(C(=O)Nc2nc3c(F)cc(F)cc3s2)CCC1=O (centres unmarked) [JUF-S11-001]
EC50 (human GC-A; Table 2, Formula (I-b), cGMP potentiation, ANP at EC20, read-out: EC50): > 5 µM

Structure (SMILES): CN(C)CCN1CCCC(C(=O)Nc2nc3c(F)cc(C(F)(F)F)cc3s2)C1 (centres unmarked) [JUF-S3-004]
IC50 (human GC-A): > 5 µM

Structure (SMILES): Cc1cc(F)c2nc(NC(=O)C3CCCN(CCN(C)C)C3)sc2c1 (centres unmarked) [JUF-S3-005]
IC50 (human GC-A): 0.9 µM

Structure (SMILES): CN(C)c1ccc(N2CCCC(C(=O)Nc3nc4c(F)cc(F)cc4s3)C2)cc1 (centres unmarked) [JUF-S4-009]
GC-A activity (in words) (human GC-A): active

Structure (SMILES): O=C(Nc1nc2c(F)cc(F)cc2s1)C1CNCCO1 (centres unmarked) [JUF-S11-003A]
IC50 (human GC-A): > 5 µM

Structure (SMILES): COc1cc(F)c2nc(NC(=O)C3CCCN(CCN(C)C)C3)sc2c1 (centres unmarked) [JUF-S3-006]
Emax (human GC-A; Table 3, 100% = saturating ANP (10 nM), 0% = EC20 ANP, read-out: Emax (%)): 112% | IC50 (human GC-A): 6.7 µM

Structure (SMILES): CN(C)CCN1CCOC(C(=O)Nc2nc3c(F)cc(F)cc3s2)C1 (centres unmarked) [JUF-S11-003]
IC50 (human GC-A): > 5 µM

Further lines, with some results ahead:

GC-A activity (in words) (human GC-A): high potency in activation of GC-A | LLE (human GC-A; Table 1): 5.11 | potency in activation of GC-A relative to MCUF-651 (human GC-A; compared to MCUF-651): ~ 10 fold
Structure (SMILES): CN1CC(N2CCCC(C(=O)Nc3nc4c(F)cc(F)cc4s3)C2)C1 (centres unmarked) [JUF-S4-029]
hERG binding (in words) (hERG channel): did not eliminate hERG binding | toxicity from binding at hERG channel and other off-target toxicity (in words) (hERG channel): reduced toxicity | selectivity ratio (hERG channel; human, compared to MCUF-651, read-out: selectivity for GC-A vs hERG relative to MCUF-651): 50 to 100

LLE (human GC-A; Table 1): 3.28- 3.72
Structure (SMILES): O=C(Nc1nc2c(F)cc(F)cc2s1)C1CCCN(c2ccncc2)C1 (centres unmarked) [JUF-S4-026]
hERG binding (in words) (hERG channel): did not result in selectivity over hERG binding | GC-A activity (in words) (human GC-A): active; also recorded: more active than MCUF-651

Emax (human GC-A; [2]): 84 to 89% | EC50 (human GC-A; [3]): 0.08 to 0.2 µM
Structure (SMILES): O=C(Nc1nc2c(F)cc(F)cc2s1)C1CCCN(C2CNC2)C1 (centres unmarked) [JUF-S4-029A]

Emax (human GC-A; [2]): 97%
Structure (SMILES): CN1CCCC(N2CCCC(C(=O)Nc3nc4c(F)cc(F)cc4s3)C2)C1 (centres unmarked) [JUF-S4-016]

Emax (human GC-A; [2]): 89% | LLE (human GC-A; Table 1): 4.09- 4.39 | EC50 (human GC-A; [3]): 0.13 µM
Structure (SMILES): CN1CCC(N2CCCC(C(=O)Nc3nc4c(F)cc(F)cc4s3)C2)C1 (centres unmarked) [JUF-S4-015]

Emax (human GC-A; control on each assay plate, read-out: Emax range of control compound): 75 to 85%
Structure (SMILES): CN(C)CCN1CCCC(C(=O)Nc2nc3c(F)cc(F)cc3s2)C1 (centres unmarked) [MCUF-651]
in vivo activity (in words) [1]: active in vivo | oral bioavailability (in words) ([1]; in vivo, po): orally bioavailable

Emax (human GC-A; [2]): 104 to 135% | EC50 (human GC-A; [3]): 2.5 to 7.4 µM
Structure (SMILES): O=C(Nc1nc2c(F)cc(F)cc2s1)C1CCCN(c2cccnc2)C1 (centres unmarked) [JUF-S4-025]

Emax (human GC-A; [2]): 81 to 86% | EC50 (human GC-A; [3]): 2.1 to 4.9 µM
Structure (SMILES): Cn1cc(N2CCCC(C(=O)Nc3nc4c(F)cc(F)cc4s3)C2)cn1 (centres unmarked) [JUF-S4-023]

GC-A activity (in words) (human GC-A): loss of activity | Emax (human GC-A; [2]): 105%
Structure (SMILES): O=C(Nc1nc2c(F)cc(F)cc2s1)C1CCCN(CCN2CCCC2=O)C1 (centres unmarked) [JUF-S4-014]

LLE (human GC-A; Table 1): 2.91
Structure (SMILES): O=C(Nc1nc2c(F)cc(F)cc2s1)C1CCCN(CCn2cccn2)C1 (centres unmarked) [JUF-S4-012]
GC-A activity (in words) (human GC-A): tolerated

Emax values of internal control (human GC-A; FIG. 2, titrated on each 384-test plate): 80-100 % response | EC50 (human GC-A; FIG. 2, titrated on each 384-test plate, read-out: Acceptable EC50 values of internal control): 0.2 to 0.6 µM
Structure (SMILES): CN(C)CCN1CCCC(C(=O)Nc2nc3c(F)cc(F)cc3s2)C1 (centres unmarked) [MCUF 651, reference compound]
